Data: paper PMC9645390, “Amphiphilic stilbene derivatives attenuate the neurotoxicity of soluble Aβ42 oligomers by controlling their interactions with cell membranes” (Chemical Science, 2022)
Like-named read-outs stand apart in the source and are kept apart here.

Key:
[1] = test system: Cu2+–Aβ42 species in Neuro2A cells; experiment: Cu2+-Aβ42-induced toxicity in Neuro2A cells (Alamar Blue); assay type: cell-based, mouse; settings: [Aβ42] = [Cu2+] = 40 μM, compound 10 μM (ZY-12-OMe 5 μM), 40 h
Procedure: As mentioned above, compounds that are not cytotoxic at 10 μM, including ZY-12-MT, ZY-15-MT, ZY-15-OMe, ZY-17-MT, ZY-5-MT, ZY-5-DT, ZY-5-OMe, and ZY-12-OMe, were chosen for this study. Firstly, during the control studies, we observed that monomeric Aβ42 led to negligible neurotoxicity. Nevertheless, in the presence of both Cu^2+ and monomeric Aβ42, there was a significant cell death, which is likely due to the Cu^2+ associated neurotoxic Aβ42 oligomers formation.[46] […] According to the docking results, ZY-12-MT, ZY-15-OMe, ZY-15-MT, and ZY-5-OMe interact with Aβ42 tetramers mainly through residues His6, Asp7, Tyr10 (via hydrogen bonds), and Tyr10 (via π–π interactions). Some reports have also shown that His6, Asp7, and Tyr10 are potentially involved in the Cu–Aβ interactions, which explains why the compounds are able to attenuate the Cu–Aβ toxicity.[48]
Fig. 9 Cell viability results upon incubation of Neuro2A cells with monomeric Aβ42 in the presence or absence of metal ions and amphiphilic compounds. Concentrations: [Aβ42] = 40 μM, [Cu^2+] = 40 μM, [ZY-12-MT] = [ZY-15-OMe] = [ZY-15-MT] = [ZY-17-MT] = [ZY-5-OMe] = [ZY-5-MT] = [ZY-5-DT] = 10 μM, [ZY-12-OMe] = 5 μM. The error bars represent the standard deviation from five independent experiments, and the statistical analysis was evaluated according to one-way ANOVA (*p < 0.05).
Alamar Blue assay was chosen for the cytotoxicity studies.3 Mouse neuroblastoma Neuro2A (N2A) cells were grown with DMEM/10% FBS in a petri dish at 37 °C in a humidified atmosphere with 5% CO2. Then N2A cells were seeded in a 96-well plate (1.0 × 10^4/well). After 24 h incubation, cell media was changed to DMEM/N-2, and N2A cells were incubated for another 1 h. […]
(§1) For the Cu2+-Aβ-induced toxicity studies, cells were treated monomeric Aβ42, Cu2+, monomeric Aβ42 + Cu2+, and monomeric Aβ42 + Cu2+ + compounds, monomeric Aβ42 + Cu2+ + copper chelators (Me2HTACN or Me3TACN), respectively. After 40 h incubation, Alamar Blue solution (10 μL) was added, and the cells were incubated for another 90 min at 37 °C. The fluorescence intensity of each well was measured at 590 nm (excitation wavelength = 560 nm). […]
10. The effect of copper chelators on Cu2+-Aβ42 neurotoxicity
Figure S8. Cell viability results upon incubation of Neuro2A cells with 10 μM copper chelators (Me2HTACN or Me3TACN) in the presence or absence of 40 μM (Aβ42 + Cu2+). The error bars represent the standard deviation from five independent experiments, and the statistical analysis was evaluated according to one-way ANOVA. […]

[2] = molecular target: T1, Aβ42 fibrils (Homo sapiens, UniProt P05067); experiment: Fluorescence saturation binding assay with Aβ42 fibrils; settings: for binding ratio, Fibrils: from cross point between plateau and initial slope
T1 construct: 1 mg of commercial Aβ42 monomer powder (from GL biochem) was dissolved in 1; purchased GL biochem
Procedure: (§2) Fig. 3 Binding constant measurements of ZY-5-OMe (left), ZY-5-MT (middle), ZY-5-DT (right) with Aβ42 fibrils (top), and oligomers (bottom). The measurements were performed in 10 mM phosphate buffered saline (PBS), pH 7.4. The Kd curves were fitted in GraphPad Prism with one site-specific binding model. Equation: Y = Bmax × X/(Kd + X). [Aβ42 fibrils] = [Aβ42 oligomers] = 5 μM.
(§3) Preparation of the Aβ42 Fibrils and Aβ42 Oligomers
(§4) Aβ42 fibrils: 1 mg of commercial Aβ42 monomer powder (from GL biochem) was dissolved in 1
(§5) mL 1,1,1,3,3,3-hexafluoro-2-propanol (HFIP) at room temperature and incubated for 1h. The
(§6) resulting solution was divided equally into two Eppendorf tubes. The solution in each Eppendorf
(§7) tube containing 0.5 mg Aβ42 monomer was then evaporated overnight and dried by vacuum
(§8) centrifuge to generate monomeric films. 100 μM Aβ42 fibrils solution was prepared by dissolving
(§9) the 0.5 mg monomeric films in 1.1 mL PBS buffer (with final DMSO concentration less than 1%)
(§10) and stiring at 37 °C for 3 days.
(§11) Aβ42 oligomers: The 0.5 mg monomeric films were dissolved in 1.1 mL PBS buffer (with final
(§12) DMSO concentration less than 1%) and incubated at 4 °C overnight. The resulting solution was
(§13) then centrifuged at 3000 rpm for 15 mins to remove the insoluble aggregates. The clear supernatant
(§14) was then used for the following experiments. […]
(§15) In Vitro Saturation Binding Studies with Aβ42 Fibrils and Aβ42 Oligomers
(§16) To a solution of increasing concentrations of compounds, a fixed concentration of the generated
(§17) aggregated Aβ42 fibrils or Aβ42 oligomers solutions (5 to 15 μM) was added to yield a total volume
(§18) of 100 μL. Nonspecific binding was determined without compounds. The mixture was incubated
(§19) for 15 min at room temperature. All fluorescence data were obtained on a SpectraMax M2e plate
(§20) reader (Molecular Devices).

[3] = molecular target: T2, Aβ42 oligomers (Homo sapiens, UniProt P05067); experiment: Fluorescence saturation binding assay with Aβ42 oligomers; settings: for Kd / binding ratio, Oligomers: Aβ42 oligomers; for Kd: 10 mM PBS pH 7.4, one site-specific binding model; for binding ratio, Oligomers: from cross point between plateau and initial slope; for binding preference oligomers vs fibrils (from Kd values): lower Kd for Aβ oligomers than Aβ fibrils
T2 construct: 1 mg of commercial Aβ42 monomer powder (from GL biochem) was dissolved in 1; purchased GL biochem
Procedure: as §2, §3, §4, §5, §6, §7, §8, §9, §10, §11, §12, §13, §14, §15, §16, §17, §18, §19, §20

[4] = Log D by octanol-PBS partition assay; assay type: physicochemical; settings: pH 7.4, fluorescence readout
Procedure: In order to confirm that the compounds can also bind to native Aβ species, brain sections collected from 9-month-old 5xFAD transgenic mice have been employed in the fluorescence imaging studies. […] The brain sections were first incubated with our compounds, followed by Congo Red (CR), which is a well-established fluorescent probe that can bind to Aβ plaques.[34] The treated brain sections were then imaged using fluorescence microscope. […] Immunostaining with the CF594-conjugated HJ 3.4 antibody (CF594-HJ3.4) was also performed to confirm that these six compounds can bind to Aβ species specifically in the brain sections (Fig. 5). Moreover, the log D values of the compounds were also measured by octanol-PBS partition assays.[35] […]
The Log D value was measured following a published procedure using slight modifications.4 In general, compounds in 0.5 mL octanol was subjected to partition with 0.5 mL octanol-saturated
PBS. The whole mixture was stirred vigorously for 5 min, and centrifuged at 2,000 rpm for 5 min.
The top octanol layer was separated for later fluorescence measurement. The remaining PBS layer was partitioned with 0.5 mL PBS-saturated octanol, and the second top octanol layer was then separated after vigorous stirring and centrifuging at 2,000 rpm for another 5 min. The two octanol layers’ fluorescence spectra were recorded. The log D value was calculated by the fluorescence intensity ratio at the compounds’ emission wavelength for the above two octanol extractions. […]

[5] = Alamar Blue cytotoxicity assay in N2a cells; assay type: cell-based, mouse; settings: mouse, N2a (Neuro2A) neuroblastoma cells, up to 10 μM, 40 h, read-out: cell viability
Procedure: (§21) After confirming these amphiphilic compounds can bind to Aβ species both in vitro and ex vivo, we next investigated whether these compounds could attenuate the toxicity of the Cu–Aβ species, as the Cu^2+ ions were reported to promote the formation of neurotoxic soluble Aβ42 oligomers.[45,46] Firstly, the Alamar Blue cell viability assay was used to measure the cytotoxicity of the compounds at different concentrations ranging from 20 μM to 2 μM in mouse neuroblastoma N2a cells (Fig. 8). […] Considering its high binding affinity to both Aβ fibrils and oligomers, we also further tested its ability to alleviate Cu^2+–Aβ42-induced toxicity. […] The underlying mechanism is unclear, but we propose that these compounds might perform similarly to the toxic oligomers that bind to some cell membrane receptors or insert into the membrane lipids to form porous channels.
(§22) Alamar Blue assay was chosen for the cytotoxicity studies.3 Mouse neuroblastoma Neuro2A (N2A) cells were grown with DMEM/10% FBS in a petri dish at 37 °C in a humidified atmosphere with 5% CO2. Then N2A cells were seeded in a 96-well plate (1.0 × 10^4/well). After 24 h incubation, cell media was changed to DMEM/N-2, and N2A cells were incubated for another 1 h. Then the cells were treated with different concentrations of compounds for 40 h, Alamar Blue solution (10 μL) was added, and the cells were incubated for another 90 min at 37 °C. The fluorescence intensity of each well was measured at 590 nm (excitation wavelength = 560 nm).
as §1

[6] = molecular target: T3, Aβ plaques in 5xFAD mice brain sections (Homo sapiens, UniProt P05067); experiment: Fluorescence imaging of 5xFAD mouse brain sections, colocalization with Congo Red; settings: 9-month-old 5xFAD brain sections; compound 5 μM, Congo red 2.5 μM
T3 construct: aggregated Aβ species were commonly observed in brain sections from 5xFAD transgenic mice; tissue Jackson Laboratories; host or cells: brain sections of 9-month-old 5xFAD transgenic mice
Procedure: In order to confirm that the compounds can also bind to native Aβ species, brain sections collected from 9-month-old 5xFAD transgenic mice have been employed in the fluorescence imaging studies. […] The brain sections were first incubated with our compounds, followed by Congo Red (CR), which is a well-established fluorescent probe that can bind to Aβ plaques.[34] The treated brain sections were then imaged using fluorescence microscope. […] Immunostaining with the CF594-conjugated HJ 3.4 antibody (CF594-HJ3.4) was also performed to confirm that these six compounds can bind to Aβ species specifically in the brain sections (Fig. 5). Moreover, the log D values of the compounds were also measured by octanol-PBS partition assays.[35]
Fig. 4 Fluorescence microscopy images of 5xFAD mice brain sections co-incubated with amphiphilic compounds (top), Congo red (middle) and merged images (bottom, along with the Parson's correlation coefficients R). Concentrations: [amphiphilic compounds] = 5 μM, [Congo red] = 2.5 μM; scale bar: 125 μm. TEXT PRINTED IN THE PICTURE: ZY-5-MT: Merged R= 0.84 | ZY-12-DT: Merged R= 0.52 | ZY-12-OMe: Merged R= 0.77 | ZY-15-OMe: Merged R= 0.77 | ZY-17-DT: Merged R= 0.77 | ZY-17-OMe: Merged R= 0.72 […]
Histological Staining of 5×FAD Mice Brain Sections
5xFAD transgenic mice brain sections were blocked with bovine serum albumin (2% BSA in PBS, pH 7.4, 10 min). Then the mice brain sections were transferred to a PBS solution of the compound and incubated for 1 h. After which, the brain sections were transferred to a PBS solution of Congo Red or antibody HJ 3.4 (Professor David Holtzman, 1 μg/ml) and incubated for another 1 h. Then, the brain sections were treated with BSA again (5 min) followed by washing with PBS (3 × 2 min), DI water (3 × 2 min). Finally, the mice brain sections were mounted with non-fluorescent mounting media, and the images were obtained by using EVOS FL Auto 2. ImageJ Fiji program was used for colocalization analysis and determination of the Pearson’s correlation coefficient. The primary

[7] = test system: mouse neuroblastoma N2a cells; experiment: Alamar Blue cytotoxicity assay in N2a cells; assay type: cell-based; settings: 2 to 20 μM
Procedure: as §21, §22, §1

[8] = Aβ42 fibrils, 10 mM PBS pH 7.4, one site-specific binding model, read-out: Kd, Fibrils

T1 sequence (P05067 672-713 limits assumed): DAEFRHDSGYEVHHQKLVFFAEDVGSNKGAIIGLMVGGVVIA
T2 sequence (P05067 672-713 limits assumed): as above
T3 sequence (P05067 672-713 limits assumed): as above

Structure (SMILES)	Kd [2, 8] [µM]	binding ratio, Fibrils ([2]; Aβ42 fibrils)	Kd [3] [µM]	binding ratio, Oligomers [3]	logD [4]	Kd ([2]; another trial, [Aβ42 fibrils] = 5 μM, PBS pH 7.4 (Fig. S5), read-out: Kd, Aβ42 fibrils, another trial) [µM]	selectivity to Aβ oligomers (times higher than that for Aβ fibrils) ([3]; from Kd values fibrils vs oligomers) [times]	Pearson's correlation coefficient R, colocalization with Congo Red [6]	effect on Cu2+–Aβ42-induced toxicity (cell viability, in words) [1]	viability at 40 h [5] [%]	binding preference oligomers vs fibrils (from Kd values) [3]	cytotoxicity (in words) [7]
CN1CCNCCN(C)CC1 [Me2HTACN, 1,4-dimethyl-1,4,7-triazacyclononane, reference compound]	–	–	–	–	–	–	–	–	not able to alleviate the neurotoxicity	–	–	–
CN1CCN(C)CCN(C)CC1 [Me3TACN, 1,4,7-trimethyl-1,4,7-triazacyclononane, reference compound]	–	–	–	–	–	–	–	–	not able to alleviate the neurotoxicity	–	–	–
CN1CCN(C)CCN(Cc2cc(/C=C/c3ccc(-c4ccc(N(C)C)cc4)s3)cc(CN3CCN(C)CCN(C)CC3)c2O)CC1 [ZY-5-DT]	1.67	1.6	2.09	1.7	1.03 ± 0.122	–	–	–	–	> 80	–	–
CN1CCN(C)CCN(Cc2cc(-c3ccc(/C=C/c4ccc(N(C)C)cc4)s3)cc(CN3CCN(C)CCN(C)CC3)c2O)CC1 [ZY-12-DT]	1.38	3.5	0.67	3.7	1.13 ± 0.045	–	–	0.52	–	–	higher binding affinity to oligomers over fibrils	higher cytotoxicity than others

The remaining molecules from weak to strong by Kd [2, 8], led by results:

Kd [2, 8] [µM]	binding ratio, Fibrils ([2]; Aβ42 fibrils)	Kd [3] [µM]	binding ratio, Oligomers [3]	logD [4]	Kd ([2]; another trial, [Aβ42 fibrils] = 5 μM, PBS pH 7.4 (Fig. S5), read-out: Kd, Aβ42 fibrils, another trial) [µM]	selectivity to Aβ oligomers (times higher than that for Aβ fibrils) ([3]; from Kd values fibrils vs oligomers) [times]	Pearson's correlation coefficient R, colocalization with Congo Red [6]	Structure (SMILES)	effect on Cu2+–Aβ42-induced toxicity (cell viability, in words) [1]	viability at 40 h [5] [%]	binding preference oligomers vs fibrils (from Kd values) [3]	cytotoxicity (in words) [7]
1.82	2.1	0.46	4.9	0.997 ± 0.031	1.43	3.9	0.84	CN1CCN(C)CCN(Cc2cc(/C=C/c3ccc(-c4ccc(N(C)C)cc4)s3)ccc2O)CC1 [ZY-5-MT]	–	> 80	higher binding affinity to oligomers over fibrils	–
1.27	2.9	4.55	1.2	1.16 ± 0.026	–	–	–	CN1CCN(C)CCN(Cc2cc(/C=C/c3ccc(-c4ccc(C=O)cc4)s3)cc(CN3CCN(C)CCN(C)CC3)c2O)CC1 [ZY-15-DT]	–	–	–	–
0.94	5.5	2.08	2.0	0.81 ± 0.079	–	–	–	COc1cc(OC)cc(-c2ccc(/C=C/c3ccc(O)c(CN4CCN(C)CCN(C)CC4)c3)cc2)c1 [ZY-17-MT]	–	> 80	–	–
